Measured values reported in PMC12040169 (PLOS Biology, 2025).

Experiment: in vitro
Settings: human, hela cells, % viability

Structure (SMILES)	viability at 28.5 h, 10 µM
Nc1c(C(=O)NCC2CCCO2)c2nc3ccccc3nc2n1C1CCCC1 (stereo not drawn) [CBK269217]	112%
Cc1ccc2nc3c(cc(C(=O)NC4CCCC4)c(=N)n3Cc3ccco3)c(=O)n2c1 [CBK265242]	81%
c1ccc(-c2cc(CC3(NCc4cc5ccccc5o4)COC3)no2)nc1 [CBK289239]	93.4%
CCCc1nn(CC(=O)N2CCCC2)c(=O)c2cc3ccsc3n12 [CBK284145]	85.5%
CCn1c(C)nc2cc(NC(=O)Cn3cnc4ccccc43)ccc21 [CBK281832]	94.1%
CC(C)N1CCCC2(CCN(C(=O)Cc3c[nH]c(=O)n(C)c3=O)C2)C1=O (stereo not drawn) [CBK307115]	87.8%
O=C(c1ccc(-c2nccnc2NCc2ccc(C(F)(F)F)cc2)cc1)N1CCOCC1 [CBK036931]	100%
c1ccc(CCN2CCC(Oc3cncc(OCCN4CCOCC4)n3)C2)cc1 (stereo not drawn) [CBK084497]	87.6%
CC1CCCCN1Cc1nc2c(c(=O)n(C)c(=O)n2C)n1Cc1ccc(Br)cc1 (stereo not drawn) [CBK269184]	95.3%
CC(CCCc1ccccc1)NC(=O)c1cc2c([nH]c1=O)CCC2 (stereo not drawn) [CBK281528]	87.6%
Cc1ccc(CN(CC2CCOC2)C2CC(C)(C)NC(C)(C)C2)o1 (stereo not drawn) [CBK283174]	92.6%
Cc1cc2ccccc2n1CC(=O)N1CCn2cnnc2C1 [CBK282209]	108%
CCc1nc(CN2CCCC(NCc3cccc(C(N)=O)c3)C2)no1 (stereo not drawn) [CBK306254]	87.2%
Cc1cc(C)nc(N/C(=N/C(=O)CCN2C(=O)c3ccccc3C2=O)Nc2cccc(Cl)c2)n1 [CBK266507]	97%
Cc1nc2ncccn2c1-c1csc(Nc2ccc(C(=O)O)cc2)n1 [CBK263284]	125%
Cc1cc(CN2CCC(N(C)Cc3nnc(C)n3C)C2)no1 (stereo not drawn) [CBK305088]	96.6%
COc1ccc(S(=O)(=O)NCCSCc2cccc(C)c2)cc1Cl [CBK268477]	100%
Cc1ccc2cc(CN(Cc3cccs3)C(=O)NCc3ccccc3)c(=O)[nH]c2c1C [CBK068496]	91.2%
Cc1nc[nH]c1CN(Cc1cccc(F)c1)CC1CCCO1 (stereo not drawn) [CBK282525]	105%
Cc1ccc(OCC(O)CNC(=O)c2ccccc2C(=O)O)cc1 (stereo not drawn) [CBK264778]	116%
CC(C)COc1ccc(C(CC(=O)O)C(=O)O)cc1 (stereo not drawn) [CBK286759]	103%

Structure (SMILES)	viability at 28.5 h, 10 µM
S=C(NCCc1c[nH]c2ccccc12)NCc1ccco1 [CBK267157]	92.7%
CCCOC1CCCN(C(=O)c2cncc(F)c2)C1 (stereo not drawn) [CBK304623]	95%
CCOC(=O)C1=C(C)N(CCO)C(=O)NC1c1ccccc1Br (stereo not drawn) [CBK027192]	104%
CN(C)CC(C)(C)CN1C2CCC1CC(O)(c1ccccc1F)C2 (stereo not drawn) [CBK282648]	94.4%
O=C(NCCn1c(-c2ccncc2)nc2ccccc21)c1ccc(F)c(F)c1 [CBK288577]	88.9%
Cc1cccc(OCC(C)NC(=O)N2CCCC2c2cnn(C)c2)c1 (stereo not drawn) [CBK304100]	91.6%
CS(=O)(=O)N1CCCc2cc(-c3csc(N)n3)ccc21 [CBK305859]	86.4%
CCC(CC)C(=O)Nc1ccc([C@@H](O)[C@H]2COCC(=O)N2Cc2ccc(OC)cc2)cc1 [CBK289677]	102%
COc1cc(S(=O)(=O)NCc2ccncc2)c(C)cc1C [CBK269988]	91.8%
CCN(CC)CCCNc1oc(-c2ccc(Cl)cc2)nc1C#N [CBK265746]	126%
Cc1c(Cl)cccc1S(=O)(=O)Nc1nc(C(C)Sc2nccn2C)ns1 (stereo not drawn) [CBK200052]	88.5%
O=C(Nc1nc2c(F)cc(F)cc2s1)c1ccc(F)cc1 [CBK287617]	101%
CCCCn1ncnc1-c1cnc2ccnn2c1C [CBK307305]	114%
O=C(Nc1ccc2c(c1)OCO2)c1ccc(-c2ccccc2)nc1NCCc1ccccn1 [CBK076574]	102%
COc1ccc(C(NC(=O)c2cc(C)oc2CN2CCCC2)c2ccccc2)cc1 (stereo not drawn) [CBK285573]	118%
Cc1cccc(Cn2nc(C)c(NC(=O)COc3ccccc3)c2C)c1 [CBK270007]	93.5%
CCOC(=O)C1(Cc2cc(-c3cccc(F)c3)no2)CCCNC1 (stereo not drawn) [CBK284578]	87.3%
CC(C)(C)c1nnc(NCc2ccccc2)s1 [CBK074922]	95.7%
Cc1nn(-c2ccccc2)c(C)c1C1CC(=O)Nc2c1cnn2C(C)C (stereo not drawn) [CBK287925]	104%
O=C(Nc1c[nH]c(=O)[nH]c1=O)c1ccc(Oc2ccc(C(=O)Nc3c[nH]c(=O)[nH]c3=O)cc2)cc1 [CBK261184]	108%
O=C(NCCN1CCCC1)c1cc2cc(Cl)ccc2[nH]1 [CBK107267]	88%

Structure (SMILES)	viability at 28.5 h, 10 µM
CCOc1ccc(CN2CCN(C(=O)c3ccc(-c4ccccc4)cc3)CC2)cc1 [CBK263399]	99.9%
Cc1cc(C)n(-c2cccc(CN3CCC(CO)C3)c2)n1 (stereo not drawn) [CBK282928]	94.8%
COCCNc1cccc(Cn2c(=O)n(C)c3c2c(=O)nc(OC)n3C)c1 [CBK022052]	84.3%
O=C(CSc1nc2ccccc2[nH]1)c1ccc2ccccc2c1 [CBK261739]	104%
CCn1cc(NC(=S)Nc2sc3c(c2C(=O)OC)CCC(C)C3)c(C(N)=O)n1 (stereo not drawn) [CBK267032]	105%
CC1=C(C(=O)OCC(=O)c2ccc(C)cc2)C2C=C(Br)C=CC2N=C1c1ccc(C)cc1 (stereo not drawn) [CBK264079]	94%
COc1cc(-c2nc3ccccn3c2/N=C/c2ccc(-c3ccc([N+](=O)[O-])cc3)o2)ccc1O [CBK262288]	79.8%
COc1ccc(N2C(=O)CC(N3CCN(C4CC(=O)N(c5ccc(OC)cc5)C4=O)CC3)C2=O)cc1 (stereo not drawn) [CBK260907]	88.2%
COc1cc(OCc2ccccc2)ccc1CN1CCN(Cc2ccccc2)CC1 [CBK074766]	88.1%
O=C(Cn1cnc(-c2noc(-c3cccnc3)n2)c1)Nc1ccc(Cl)cc1 [CBK287822]	96.2%
O=C(Cc1ccc([N+](=O)[O-])cc1)Nc1ccc(O)cc1C(=O)O [CBK265977]	97.6%
CCCc1ccc(S(=O)(=O)Nc2ccc(C(=O)OC)cc2)cc1 [CBK028682]	99.5%
COc1cccc(N2CC(C(=O)Nc3cccc(C(=O)O)c3)CC2=O)c1 (stereo not drawn) [CBK286612]	99.7%
O=C(O)CN1C(=O)/C(=C2/C(=O)N(Cc3ccccc3Cl)c3ccccc32)SC1=S [CBK265570]	95.6%
O=C(CC1(O)C(=O)N(Cc2ccccc2)c2ccccc21)c1cc2ccccc2oc1=O (stereo not drawn) [CBK293963]	106%
CCc1noc(C)c1C(=O)N1CC(C(=O)N2CCN(c3ccccc3)CC2)C1 [CBK285667]	107%
CCN(CCN(C)C)Cc1ccc(F)cc1F [CBK261877]	93.1%
O=C(O)CN(c1cccc([N+](=O)[O-])c1)S(=O)(=O)c1ccccc1 [CBK262684]	85.6%
c1cc(-c2nccnc2OC2CCCCC2)ccn1 [CBK106727]	87.8%

Same assay, conditions: human, hela cells, % viability, bulk resorufin, single well

Structure (SMILES)	viability at 28.5 h, 10 µM
Cc1ccc(Cn2nc(C(=O)Nc3nc4ccccc4s3)c3ccccc32)cc1 [CBK047837]	92.4%
Oc1ccc(Br)cc1C(c1c(O)nc(S)nc1O)c1c(O)nc(S)nc1O [CBK265367]	103%
